According to PMC11851430, “Workflow for E3 Ligase Ligand Validation for PROTAC Development” (ACS Chemical Biology, 2025):

Tests used:
Assay in all cases: DSF assay
Format in all cases: binding
Settings in all cases: 20 µM compound
BMP2KA = molecular target: T1, BMP2KA (Homo sapiens, UniProt Q9NSY1)
T1 construct: purchased in-house DSF panel (SGC-style construct names; the trailing A/B is a construct suffix)
Protocol: (§1) Excitation and emission filters […]
(§2) curve. […] Measurements were
(§3) Kinobeads selectivity profiling of PROTACs
(§4) (Multiplexion, Heidelberg, Germany).
(§5) The cell lysate was ultracentrifuged and diluted
(§6) NaF, 1 mM DTT, protease inhibitors and phosphatase inhibitors to a final concentration of 5 mg/ml as determined by Bradford assay. For selectivity profiling of compounds the cell lysate (2.5 mg of total proteins per pulldown) was pre-incubated with increasing compound […]
(§7) µM) for 45 min at 4 °C in an end-over-end shaker. Subsequently, lysates were incubated with Kinobeads epsilon (17 µL settled beads) for 30 min at 4 °C. To assess the degree of protein depletion from the lysates by Kinobeads, the flow-through of the DMSO control was recovered

BMPR2A = molecular target: T2, BMPR2A (Homo sapiens, UniProt Q13873)
T2 construct: purchased in-house DSF panel (SGC-style construct names; the trailing A/B is a construct suffix)
T2 sequence (Q13873 27-1038): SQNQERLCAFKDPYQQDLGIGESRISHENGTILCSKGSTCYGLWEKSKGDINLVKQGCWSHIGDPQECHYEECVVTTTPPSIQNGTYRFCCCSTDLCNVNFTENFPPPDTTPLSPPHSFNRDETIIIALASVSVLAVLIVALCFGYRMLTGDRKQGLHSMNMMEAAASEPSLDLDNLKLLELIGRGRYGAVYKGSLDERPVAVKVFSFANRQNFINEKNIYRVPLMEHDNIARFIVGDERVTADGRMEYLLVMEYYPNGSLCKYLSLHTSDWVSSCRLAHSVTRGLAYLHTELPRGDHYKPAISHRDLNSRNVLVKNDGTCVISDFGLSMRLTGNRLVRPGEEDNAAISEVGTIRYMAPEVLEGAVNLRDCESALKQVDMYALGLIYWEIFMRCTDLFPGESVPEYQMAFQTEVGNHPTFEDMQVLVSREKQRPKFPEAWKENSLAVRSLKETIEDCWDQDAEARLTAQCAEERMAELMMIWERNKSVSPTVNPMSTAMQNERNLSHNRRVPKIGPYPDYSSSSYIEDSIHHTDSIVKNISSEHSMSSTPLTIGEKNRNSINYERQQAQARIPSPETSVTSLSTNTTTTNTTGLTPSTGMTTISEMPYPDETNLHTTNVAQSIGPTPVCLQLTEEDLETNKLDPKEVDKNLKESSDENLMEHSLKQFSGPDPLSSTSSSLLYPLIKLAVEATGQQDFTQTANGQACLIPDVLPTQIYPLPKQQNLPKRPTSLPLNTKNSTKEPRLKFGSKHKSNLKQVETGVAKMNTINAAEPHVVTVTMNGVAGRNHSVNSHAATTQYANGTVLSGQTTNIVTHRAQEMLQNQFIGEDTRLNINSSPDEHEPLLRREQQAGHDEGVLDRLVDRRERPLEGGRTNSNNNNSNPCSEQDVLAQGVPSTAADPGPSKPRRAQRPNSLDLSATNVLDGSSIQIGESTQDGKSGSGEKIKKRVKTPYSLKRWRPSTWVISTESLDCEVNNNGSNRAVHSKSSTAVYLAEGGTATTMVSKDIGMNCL
Protocol: as §1, §2, §3, §4, §5, §6, §7

CDC42BPAA = test system: CDC42BPAA
Protocol: as §1, §2, §3, §4, §5, §6, §7

CSNK1DA = molecular target: T3, CSNK1DA (Homo sapiens, UniProt P48730)
T3 construct: purchased in-house DSF panel (SGC-style construct names; the trailing A/B is a construct suffix)
T3 sequence (P48730 1-294): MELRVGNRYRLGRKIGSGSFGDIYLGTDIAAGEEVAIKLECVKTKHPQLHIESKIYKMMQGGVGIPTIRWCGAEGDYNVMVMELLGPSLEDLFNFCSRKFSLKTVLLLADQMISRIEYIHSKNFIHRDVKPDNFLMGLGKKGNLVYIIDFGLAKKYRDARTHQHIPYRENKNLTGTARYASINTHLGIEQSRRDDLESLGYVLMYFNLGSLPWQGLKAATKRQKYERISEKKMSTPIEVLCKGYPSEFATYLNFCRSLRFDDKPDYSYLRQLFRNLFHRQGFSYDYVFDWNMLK
Protocol: as §1, §2, §3, §4, §5, §6, §7

EPHA5A = molecular target: T4, EPHA5A (Homo sapiens, UniProt P54756)
T4 construct: purchased in-house DSF panel (SGC-style construct names; the trailing A/B is a construct suffix)
T4 sequence (P54756 653-939): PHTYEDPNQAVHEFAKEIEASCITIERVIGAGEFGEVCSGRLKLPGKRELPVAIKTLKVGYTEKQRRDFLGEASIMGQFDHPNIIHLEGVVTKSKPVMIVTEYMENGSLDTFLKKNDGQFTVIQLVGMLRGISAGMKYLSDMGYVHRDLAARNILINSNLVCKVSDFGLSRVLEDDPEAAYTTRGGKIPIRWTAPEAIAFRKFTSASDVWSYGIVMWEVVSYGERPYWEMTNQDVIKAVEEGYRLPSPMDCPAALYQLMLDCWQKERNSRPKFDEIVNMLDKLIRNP
Protocol: as §1, §2, §3, §4, §5, §6, §7

FGFR3A = molecular target: T5, FGFR3A (Homo sapiens, UniProt P22607)
T5 construct: purchased in-house DSF panel (SGC-style construct names; the trailing A/B is a construct suffix)
Protocol: as §1, §2, §3, §4, §5, §6, §7

MARK3A = molecular target: T6, MARK3A (Homo sapiens, UniProt P27448)
T6 construct: purchased in-house DSF panel (SGC-style construct names; the trailing A/B is a construct suffix)
Protocol: as §1, §2, §3, §4, §5, §6, §7

MST4A = molecular target: T7, MST4A (Homo sapiens, UniProt Q9P289)
T7 construct: purchased in-house DSF panel (SGC-style construct names; the trailing A/B is a construct suffix)
Protocol: as §1, §2, §3, §4, §5, §6, §7

PKMYT1A = molecular target: T8, PKMYT1A (Homo sapiens, UniProt Q99640)
T8 construct: purchased in-house DSF panel (SGC-style construct names; the trailing A/B is a construct suffix)
T8 sequence (Q99640 75-362): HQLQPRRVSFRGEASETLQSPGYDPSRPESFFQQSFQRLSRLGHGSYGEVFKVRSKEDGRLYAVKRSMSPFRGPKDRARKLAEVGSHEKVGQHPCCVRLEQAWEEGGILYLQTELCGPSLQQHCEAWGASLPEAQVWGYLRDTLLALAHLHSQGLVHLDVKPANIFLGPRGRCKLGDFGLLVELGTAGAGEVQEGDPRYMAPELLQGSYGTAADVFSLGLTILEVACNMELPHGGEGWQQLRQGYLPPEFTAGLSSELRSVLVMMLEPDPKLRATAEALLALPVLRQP
Protocol: as §1, §2, §3, §4, §5, §6, §7

STK38LA = molecular target: T9, STK38LA (Homo sapiens, UniProt Q9Y2H1)
T9 construct: purchased in-house DSF panel (SGC-style construct names; the trailing A/B is a construct suffix)
Protocol: as §1, §2, §3, §4, §5, §6, §7

MERTKA = molecular target: T10, MERTKA (Homo sapiens, UniProt Q12866)
T10 construct: purchased in-house DSF panel (SGC-style construct names; the trailing A/B is a construct suffix)
T10 sequence (Q12866 574-864): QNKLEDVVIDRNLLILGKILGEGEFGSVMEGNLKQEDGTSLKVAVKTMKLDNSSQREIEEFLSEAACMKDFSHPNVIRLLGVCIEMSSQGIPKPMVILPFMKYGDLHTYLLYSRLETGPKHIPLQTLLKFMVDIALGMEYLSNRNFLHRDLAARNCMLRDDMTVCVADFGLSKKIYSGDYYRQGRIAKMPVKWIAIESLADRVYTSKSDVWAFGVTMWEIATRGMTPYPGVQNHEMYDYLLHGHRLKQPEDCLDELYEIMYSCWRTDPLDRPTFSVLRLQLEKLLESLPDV

T7 sequence (Q9P289 1-300): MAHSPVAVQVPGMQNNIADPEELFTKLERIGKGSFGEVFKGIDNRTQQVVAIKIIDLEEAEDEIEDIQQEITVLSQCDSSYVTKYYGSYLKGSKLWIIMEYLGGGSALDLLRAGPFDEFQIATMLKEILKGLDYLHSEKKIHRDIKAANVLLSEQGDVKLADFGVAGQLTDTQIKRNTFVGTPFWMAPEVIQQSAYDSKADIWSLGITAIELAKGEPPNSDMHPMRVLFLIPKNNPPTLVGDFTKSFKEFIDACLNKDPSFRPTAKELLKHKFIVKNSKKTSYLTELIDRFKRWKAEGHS
T9 sequence (Q9Y2H1 90-453): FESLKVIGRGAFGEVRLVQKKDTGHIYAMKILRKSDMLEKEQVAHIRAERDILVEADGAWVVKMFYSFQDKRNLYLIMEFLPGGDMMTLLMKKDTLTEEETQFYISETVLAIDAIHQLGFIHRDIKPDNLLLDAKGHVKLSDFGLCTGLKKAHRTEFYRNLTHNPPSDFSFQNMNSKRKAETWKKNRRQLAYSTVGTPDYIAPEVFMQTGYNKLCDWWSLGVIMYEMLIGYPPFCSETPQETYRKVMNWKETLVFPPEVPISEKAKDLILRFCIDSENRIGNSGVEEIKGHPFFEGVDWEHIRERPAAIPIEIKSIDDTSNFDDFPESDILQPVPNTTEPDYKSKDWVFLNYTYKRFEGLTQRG
T5 sequence (P22607 455-768): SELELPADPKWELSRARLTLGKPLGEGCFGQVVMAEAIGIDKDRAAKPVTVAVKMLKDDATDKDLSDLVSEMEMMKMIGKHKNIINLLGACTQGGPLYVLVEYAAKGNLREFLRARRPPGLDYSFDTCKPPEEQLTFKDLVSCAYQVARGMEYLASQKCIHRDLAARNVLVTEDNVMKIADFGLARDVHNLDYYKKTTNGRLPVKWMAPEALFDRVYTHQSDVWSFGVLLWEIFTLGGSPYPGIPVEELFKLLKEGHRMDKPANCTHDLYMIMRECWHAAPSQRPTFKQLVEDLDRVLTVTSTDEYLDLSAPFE
T1 sequence (Q9NSY1 38-345): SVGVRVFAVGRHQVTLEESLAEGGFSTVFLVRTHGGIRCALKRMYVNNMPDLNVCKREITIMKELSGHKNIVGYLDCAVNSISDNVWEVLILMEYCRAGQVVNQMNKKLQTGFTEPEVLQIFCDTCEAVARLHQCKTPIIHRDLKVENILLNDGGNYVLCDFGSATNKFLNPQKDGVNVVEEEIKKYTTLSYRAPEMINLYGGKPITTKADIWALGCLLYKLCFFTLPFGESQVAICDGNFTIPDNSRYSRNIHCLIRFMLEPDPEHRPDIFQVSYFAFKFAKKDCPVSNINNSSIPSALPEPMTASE
T6 sequence (P27448 56-307): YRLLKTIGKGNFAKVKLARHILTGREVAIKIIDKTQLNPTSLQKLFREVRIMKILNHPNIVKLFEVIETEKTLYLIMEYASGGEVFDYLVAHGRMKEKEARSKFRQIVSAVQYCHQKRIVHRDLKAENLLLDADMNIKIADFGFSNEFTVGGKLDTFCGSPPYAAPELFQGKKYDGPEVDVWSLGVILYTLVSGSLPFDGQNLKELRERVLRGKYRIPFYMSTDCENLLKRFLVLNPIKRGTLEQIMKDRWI

| ΔTm at 20 µM (BMP2KA) | ΔTm at 20 µM (BMPR2A) | ΔTm at 20 µM (CSNK1DA) | ΔTm at 20 µM (EPHA5A) | ΔTm at 20 µM (FGFR3A) | ΔTm at 20 µM (MARK3A) | ΔTm at 20 µM (MST4A) | ΔTm at 20 µM (PKMYT1A) | ΔTm at 20 µM (STK38LA) | ΔTm at 20 µM (MERTKA) | SMILES | ΔTm (CDC42BPAA) |
| --- | --- | --- | --- | --- | --- | --- | --- | --- | --- | --- | --- |
| 21.5 °C | 9.02 °C | 3.01 °C | 7.97 °C | 11.4 °C | 5.32 °C | 9.01 °C | -2.93 °C | 10.2 °C | 4.52 °C | CC(C)(C)OC(=O)NCCOCCOCCOCCOCCC(=O)N1CCN(c2cc(Nc3cc(C4CC4)[nH]n3)nc(Nc3ccc(CC#N)cc3)n2)CC1 [4-L] | -2.71 °C |
| 17.7 °C | 7.29 °C | 5.43 °C | 4.95 °C | 7 °C | 3.97 °C | 4.64 °C | -0.12 °C | 7.04 °C | 2.15 °C | CC(C)(C)OC(=O)NCCCOCCOCCOCCCNC(=O)c1cc(Nc2cc(C3CC3)[nH]n2)nc(Nc2ccc(CC#N)cc2)n1 [5-L] | -3.72 °C |
| 18 °C | 7.28 °C | 2.62 °C | 5.7 °C | 8.45 °C | 5.37 °C | 5.53 °C | -1.04 °C | 6.74 °C | 2.06 °C | CCOC(=O)c1cc(Nc2cc(C3CC3)[nH]n2)nc(Nc2ccc(CC#N)cc2)n1 [compound 5] | -2.55 °C |
